Values after ≈ are worked out from the molar mass of the structure shown.
Experiments:
[1] = system: Cheumatopsyche; assay: Insecticidal activity against fifth-instar larvae of Cheumatopsyche brevilineata M after 48 hr; format: functional, organism-based
[2] = system: Cheumatopsyche; assay: Insecticidal activity against first-instar larvae of Cheumatopsyche brevilineata M after 48 hr; format: functional, organism-based
[3] = system: Cheumatopsyche; assay: Insecticidal activity against first to fifth instar larvae of Cheumatopsyche brevilineata K after 48 hr; format: functional, organism-based
[4] = system: Cheumatopsyche; assay: Ratio of EC50 for fifth-instar larvae of Cheumatopsyche brevilineata M to EC50 for first instar larvae of Cheumatopsyche brevilineata M; format: functional
[5] = system: Cheumatopsyche; assay: Ratio of EC50 for fifth-instar larvae of Cheumatopsyche brevilineata K to EC50 for first instar larvae of Cheumatopsyche brevilineata K; format: functional
[6] = system: Cheumatopsyche; assay: Insecticidal activity against fifth-instar larvae of Cheumatopsyche brevilineata K after 48 hr; format: functional, organism-based
[7] = system: Cheumatopsyche; assay: Insecticidal activity against first-instar larvae of Cheumatopsyche brevilineata K after 48 hr; format: functional, organism-based

| SMILES | EC50 [1] [µg/mL] | EC50 [2] [µg/mL] | EC50 [3] [µg/mL] | Ratio EC50 [4] | Ratio EC50 [5] | EC50 [6] [µg/mL] | EC50 [7] [µg/mL] |
| --- | --- | --- | --- | --- | --- | --- | --- |
| O=[N+]([O-])/N=C1\NCCN1Cc1ccc(Cl)nc1 [IMIDACLOPRID] | 0.0379 (≈ 0.148 µM) | 0.00664 (≈ 0.026 µM) | 0.00654 (≈ 0.0256 µM) |  |  |  |  |
| COP(=S)(OC)Oc1ccc([N+](=O)[O-])c(C)c1 [FENITROTHION] | 0.0265 (≈ 0.0956 µM) | 0.00623 (≈ 0.0225 µM) |  | 4.3 | 28.4 | 0.741 (≈ 2.67 µM) | 0.0261 (≈ 0.0941 µM) |
| CCC(C)c1ccccc1OC(=O)NC (stereo not given) [FENOBUCARB] | 0.0919 (≈ 0.443 µM) | 0.00948 (≈ 0.0457 µM) |  | 10.3 | 36.9 | 0.291 (≈ 1.4 µM) | 0.00789 (≈ 0.0381 µM) |
